Data from patent publication US6956049B1, “Methods of modulating processes mediated by excitatory amino acid receptors” (Merck & Co., Inc., priority 1999, dated 2005).
Counter-ions that a name gives are not always drawn.

Key:
hmGluR5a receptor = target: T1, hmGluR5a receptor (Homo sapiens, UniProt P41594); assay: Calcium flux assay; type: cell-based; settings: hmGluR5a/L38-20 cells (mouse fibroblast Ltk), fura-2, glutamate 10 μM (EC80); read-out: Ca^2+ Flux
T1 construct: expressed in transfected cells; host or cells: mouse fibroblast Ltk cells (hmGluR5a/L38-20 cell line)
T1 sequence (P41594 21-1180 isoform P41594-2 limits assumed): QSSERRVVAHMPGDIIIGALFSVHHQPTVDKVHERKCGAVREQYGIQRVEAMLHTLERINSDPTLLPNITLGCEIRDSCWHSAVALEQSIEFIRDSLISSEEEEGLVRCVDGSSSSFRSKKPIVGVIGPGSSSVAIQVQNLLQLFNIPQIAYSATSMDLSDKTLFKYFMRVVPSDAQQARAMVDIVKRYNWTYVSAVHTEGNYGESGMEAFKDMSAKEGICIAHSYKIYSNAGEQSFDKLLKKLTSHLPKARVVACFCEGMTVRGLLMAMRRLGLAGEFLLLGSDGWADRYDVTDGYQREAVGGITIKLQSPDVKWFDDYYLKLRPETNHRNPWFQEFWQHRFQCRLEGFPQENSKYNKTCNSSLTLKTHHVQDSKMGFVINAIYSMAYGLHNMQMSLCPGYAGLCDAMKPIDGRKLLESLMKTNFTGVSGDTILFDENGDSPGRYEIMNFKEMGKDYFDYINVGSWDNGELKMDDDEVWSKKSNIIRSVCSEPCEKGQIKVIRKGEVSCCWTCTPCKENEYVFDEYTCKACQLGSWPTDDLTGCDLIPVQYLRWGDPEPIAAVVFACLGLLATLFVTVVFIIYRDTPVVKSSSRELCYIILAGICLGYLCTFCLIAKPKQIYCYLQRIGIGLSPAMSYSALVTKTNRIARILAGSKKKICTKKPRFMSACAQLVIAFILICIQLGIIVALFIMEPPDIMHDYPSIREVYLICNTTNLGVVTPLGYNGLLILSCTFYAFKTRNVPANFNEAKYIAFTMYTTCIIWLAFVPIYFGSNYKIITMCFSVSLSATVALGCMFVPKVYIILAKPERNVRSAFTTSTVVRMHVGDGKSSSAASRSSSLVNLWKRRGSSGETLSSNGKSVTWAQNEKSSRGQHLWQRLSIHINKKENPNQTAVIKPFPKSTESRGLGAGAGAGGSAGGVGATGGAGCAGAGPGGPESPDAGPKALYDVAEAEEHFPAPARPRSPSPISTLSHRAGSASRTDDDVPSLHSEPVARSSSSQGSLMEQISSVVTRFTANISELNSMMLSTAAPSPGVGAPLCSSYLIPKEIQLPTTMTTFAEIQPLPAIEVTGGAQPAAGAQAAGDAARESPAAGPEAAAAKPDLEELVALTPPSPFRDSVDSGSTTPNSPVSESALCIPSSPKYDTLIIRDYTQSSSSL
Method: The activity of compounds was examined against the hmGluR5a receptor stably expressed in mouse fibroblast Ltk cells (the hmGluR5a/L38-20 cell line). See generally Daggett et al., Neuropharmacology 34:871–886 (1995). Receptor activity was detected by changes in intracellular calcium ([Ca^++]i) measured using the fluorescent calcium-sensitive dye, fura-2. hmGluR5a/L38-20 cells were plated onto 96-well plates, and loaded with 3 μM fura-2 for 1 h. Unincorporated dye was washed from the cells, and the cell plate was transferred to a custom-built 96-channel fluorimeter (SIBIA-SAIC, La Jolla, Calif.) which is integrated into a fully automated plate handling and liquid delivery system. Cells were excited at 350 and 385 nm with a xenon source combined with optical filters. Emitted light was collected from the sample through a dichroic mirror and a 510-nm interference filter and directed into a cooled CCD camera (Princeton Instruments). Image pairs were captured approximately every 1 s, and ratio images were generated after background subtraction. After a basal reading of 20 s, an EC80 concentration of glutamate (10 μM) was added to the well, and the response evaluated for another 60 s. The glutamate-evoked increase in [Ca^++]i in the presence of the screening compound was compared to the response of glutamate alone (the positive control).

hmGluR5 = target: T2, hmGluR5 (Homo sapiens, UniProt P41594); assay: Phosphatidylinositol hydrolysis (IP1) assay; type: cell-based; settings: hmGluR5/L38-20 cells (mouse fibroblast Ltk), [3H]-inositol, 10 μM glutamate, 1 hour; read-out: PI Hydrolysis
T2 construct: expressed in transfected cells; host or cells: mouse fibroblast Ltk cells (hmGluR5/L38-20 cells)
T2 sequence (P41594 21-1180 isoform P41594-2 limits assumed): as above
Method: Inositol phophate assays were performed as described by Berridge et al. (1982) (Berridge et al, (1982) Biochem. J. 206:587–5950; and Nakajima et al., J. Biol. Chem. 267:2437–2442 (1992)) with slight modifications. Mouse fibroblast Ltk cells expressing hmGluR5 (hmGluR5/L38-20 cells) were seeded in 24-well plates at a density of 8×10^5 cells/well. One μCi of [^3H]-inositol (Amersham PT6-271; Arlington Heights, Ill.; specific activity=17.7 Ci/mmol) was added to each well and incubated for 16 h at 37° C. Cells were washed twice and incubated for 45 min in 0.5 ml of standard Hepes buffered saline buffer (HBS; 125 mM NaCl, 5 mM KCl, 0.62 mM MgSO4, 1.8 mM CaCl2, 20 mM HEPES, 6 mM Glucose, pH to 7.4). The cells were washed with HBS containing 10 mM LiCl, and 400 μl buffer added to each well. Cells were incubated at 37° C. for 20 min. For testing, 50 μl of 10X compounds used in the practice of the invention (made in HBS/LiCl (100 mM)) was added and incubated for 10 minutes. Cells were activated by the addition of 10 μM glutamate, and the plates left for 1 hour at 37° C.
The incubations were terminated by the addition of 1 ml ice-cold methanol to each well. In order to isolate inositol phosphates (IPs), the cells were scraped from wells, and placed in numbered glass test tubes. One ml of chloroform was added to each tube, the tubes were mixed, and the phases separated by centrifugation. IPs were separated on Dowex anion exchange columns (AG 1-X8 100–200 mesh formate form). The upper aqueous layer (750 ul) was added to the Dowex columns, and the columns eluted with 3 ml of distilled water. The eluents were discarded, and the columns were washed with 10 mls of 60 mM ammonium formate/5 mM Borax, which was also discarded as waste. Finally the columns were eluted with 4 ml of 800 mM ammonium formate/0.1 M formic acid, and the samples collected in scintillation vials. Scintillant was added to each vial, and the vials shaken, and counted in a scintillation counter after 2 hours. Phosphatidylinositol hydrolysis in cells treated with test compounds was compared to phosphatidylinositol hydrolysis in cells treated with control and the results are shown in Table 1.

[1] = Assessment of salt forms (solubility, hygroscopicity); type: physicochemical; settings: salt form
Method: Various salt forms of 2-(phenylethynyl)-1,3-thiazole were prepared, and their solubility, hygroscopicity, and physical state were assessed. The compound 2-phenylethynl-1,3-thiazole was prepared (see Example 8) as well as hydrochloric acid, fumaric acid, methylsulfonic acid and toluene sulfonic acid salt forms of the compound. The hydrochloric acid salt form of 2-(phenylethynyl)-1,3-thiazole is an oil. A fumaric acid salt form was not obtained by preparative steps including trituration with diethylether. Preparation of the methylsulfonate form results in a semi solid, hygroscopic material. These salt forms are typically unsuitable for certain pharmaceutical formulations, such as for tablets, capsules, and the like. In contrast to the salt forms of 2-(phenylethynyl)-1,3-thiazole, described previously, the tosylate salt form (i.e., the toluene sulfonic acid salt) is a solid having a melting point of about 129 up to 131° C. and is non-hygroscopic. Therefore, this form is presently preferred for pharmaceutical formulations of tablets, capsules, and the like.

[2] = test system: male Sprague-Dawley rats, CFA-inflamed hind paw; assay: Analgesic animal model (CFA model); type: in vivo; parameters: key: +++: high analgesic efficacy; settings: rat, 240 μmol/kg intraperitoneal, evaluated one to 24 hours post administration
Method: Compounds that modulate receptor-mediated analgesic responses wer tested in an animal model. Robust inflammation was induced by the injection of complete Freund's adjuvant (CFA, 10 mg/ml) subcutaneously into the hind paw of male Sprague-Dawley rats (150–175 g). The inflammatory response to CFA began approximately 12-hrs post-CFA injection and persisted for several days following inoculation. The inflamed hind paw became sensitive to noxious (paw pinch, plantar test) or innocuous (cold plate, Von Frey filaments) stimuli compared to the contralateral hind paw. Test compounds (240 μmol/kg) were administered via intraperitoneal injection. The analgesic activity of compounds was evaluated one to 24-hours post administration by assessing (1) the duration of analgesic effect; (2) threshold to elicit response; and (3) time from painful stimulus to response. […] For each group of animals, responses following drug administration were compared to responses prior to drug administration.

SMILES | IC50 (hmGluR5a receptor) [nM] | IC50 (hmGluR5) [nM] | hygroscopicity [1] | solubility in aqueous medium [1] | melting point [°C] | CFA Model (analgesic efficacy) [2]
Cc1csc(C=Cc2ccccc2)n1 (mixture of isomers) [Example 2, 4-Methyl-2-[2-phenylethenyl]-1,3-thiazole] | 10 to 100 | 10000 to 100000 | – | – | – | –
Cc1coc(/C=C/c2ccccc2)n1 [Example 1, 4-Methyl-2-[(E)-2-phenylethenyl]-1,3-oxazole] | 1000 to 10000 | 10000 to 100000 | – | – | – | –
Cc1nc(/C=C/c2ccccc2)cs1 [Example 3, 2-Methyl-4-[(E)-2-phenylethenyl]-1,3-thiazole] | 100 to 1000 | 1000 to 10000 | – | – | – | –
Cc1nc(C#Cc2ccccc2)cs1 [Example 4, 2-Methyl-4-(phenylethynyl)-1,3-thiazole, p-toluenesulfonic acid salt] | ≤ 10 | ≤ 100 | – | – | – | –
Nc1nc(C#Cc2ccccc2)cs1 [Example 5, 4-(Phenylethynyl)-1,3-thiazol-2-amine, p-toluenesulfonic acid salt] | 10 to 100 | 100 to 1000 | – | – | – | –
Cc1ncsc1C#Cc1ccccc1F [Example 7, 5-[(2-Fluorophenyl)ethynyl]-4-methyl-1,3-thiazole] | 100 to 1000 | > 100000 | – | – | – | –
Cc1nc(C#Cc2ccccc2)sc1C [Example 14, 4,5-Dimethyl-2-(phenylethynyl)-1,3-thiazole] | ≤ 10 | 1000 to 10000 | – | – | 55 to 60 | –
Cc1nc(/C=C/c2ccccc2)no1 [Example 15, 5-Methyl-3-[(E)-2-phenylethenyl]-1,2,4-oxadiazole] | > 10000 | > 100000 | – | – | 166 to 168 | –
C(=C\c1ncno1)/c1ccccc1 [Example 16, 5-[(E)-2-phenylethenyl]-1,2,4-oxadiazole] | > 10000 | > 100000 | – | – | 53 to 55 | –
Cn1ncnc1/C=C/c1ccccc1 [Example 17, 1-Methyl-5-[(E)-2-phenylethenyl]-1H-1,2,4-triazole] | > 10000 | > 100000 | – | – | 67 to 70 | –
Cc1n[nH]c(/C=C/c2ccccc2)n1 [Example 18, 3-Methyl-5-[(E)-2-phenylethenyl]-1H-1,2,4-triazole] | > 10000 | > 100000 | – | – | 131 to 134 | –
CCOC(=O)c1nc(/C=C/c2ccccc2)ns1 [Example 19, Ethyl 3-[(E)-2-phenylethenyl]-1,2,4-thiadiazole-5-carboxylate] | 100 to 1000 | 10000 to 100000 | – | – | 79 to 80 | –
OCc1nc(/C=C/c2ccccc2)ns1 [Example 20, {3-[(E)-2-phenylethenyl]-1,2,4-thiadiazol-5-yl}methanol] | 1000 to 10000 | > 100000 | – | – | 119 to 120 | –
Cc1ccc(C#CC2=CCCCC2)s1 [Example 21, 2-(1-Cyclohexen-1-ylethynyl)-5-methylthiophene] | > 10000 | > 100000 | – | – | – | –

Now from value to compound, other results behind:

IC50 (hmGluR5a receptor) [nM] | IC50 (hmGluR5) [nM] | hygroscopicity [1] | solubility in aqueous medium [1] | melting point [°C] | SMILES | CFA Model (analgesic efficacy) [2]
10 to 100 | 10000 to 100000 | – | – | – | Cc1ncsc1C#Cc1ccccc1 [Example 6, 4-Methyl-5-(phenylethynyl)-1,3-thiazole] | –
≤ 10 | 100 to 1000 | non-hygroscopic | soluble in aqueous medium | – | C(#Cc1nccs1)c1ccccc1.Cc1ccc(S(=O)(=O)O)cc1 [Example 8, 2-(Phenylethynyl)-1,3-thiazole, p-toluenesulfonic acid salt] | +++
10 to 100 | 1000 to 10000 | – | – | 79 to 82 | Brc1csc(C#Cc2ccccc2)n1 [Example 9, 4-bromo-2-(phenylethynyl)-1,3-thiazole] | –
> 10000 | > 100000 | – | – | 82 to 83 | Cc1cnc(C#Cc2ccccc2)s1 [Example 10, 5-Methyl-2-(phenylethynyl)-1,3-thiazole] | –
10 to 100 | 100 to 1000 | – | – | – | Cc1cccc(C#Cc2nccs2)c1 [Example 11, 2-[(3-methylphenyl)ethynyl]-1,3-thiazole] | –
100 to 1000 | 1000 to 10000 | – | – | 78 to 79 | Fc1ccc(C#Cc2nccs2)cc1 [Example 12, 2-[(4-Fluorophenyl)ethynyl]-1,3-thiazole] | –
10 to 100 | 100 to 1000 | – | – | – | Fc1ccccc1C#Cc1nccs1 [Example 13, 2-[(2-Fluorophenyl)ethynyl]-1,3-thiazole] | –
– | – | hygroscopic | – | – | C(#Cc1nccs1)c1ccccc1 [methylsulfonate form, 2-(phenylethynyl)-1,3-thiazole] | –
